Data from US11135219B2, “Methods of treating or preventing Zika virus infection” (priority 2017, dated 2021).

Experiments:
ZIKV = settings: cited from earlier work
DENV = settings: cited from earlier work
Zika virus strain MR766 = test: Inhibition of MR766 virus growth by TPB; format: cell-based; settings: μM range TPB concentrations tested
Protocol: (§1) Vero cells were seeded in a 96-well plate with the density of 6000 cells per well. In the initial screening study, the compound (1 μM)-virus (0.1 PFU/cell) mixture in virus growth medium (VGM) [DMEM containing 2% FBS, PS, 20 mM hydroxyethyl piperazine ethane sulfonic acid (HEPES), 1 mM sodium pyruvate, and non-essential amino acids] was added to the cells and incubated for 72 h. In a separate experiment conducted using 12-well plates, the cells were first infected with the virus at 0.1 PFU/cell and following adsorption, the cells were washed twice in PBS and incubated in VGM containing 1 μM concentrations of the drugs. The cell culture media were collected at 72-96 h post-infection and assayed for infectious virus by plaque assay and viral genome copies by quantitative RT-PCR (RT-qPCR). In all subsequent studies, cells in 12-well plates were infected with ZIKV at MOI of 0.1 PFU/cell and following virus adsorption for 1 h at 37° C., VGM containing various concentrations TPB was added to the cells and incubated as above. Clarified supernatants from the infected cells were then used to determine infectious virus or genome copies as above.

in vivo = format: in vivo, Balb/C mice; settings: Balb/C, mouse, in vivo, ip, 25 mg/kg
Protocol: (§2) ZIKV viral RNA was detected using RT-qPCR on a C100 Thermal Cycler and the CFX96 Real-Time system (Bio-Rad). Viral RNA (vRNA) was extracted from culture supernatant using a QlAamp Viral RNA Mini kit (Qiagen) and TaqMan Fast Virus 1-Step Master Mix (Life technologies). ZIKV primers and probe (ZIKF: CCGCTGCCCAACACAAG (SEQ ID NO:1); ZIK-R:[…] (SEQ ID NO:2); PCR Probe: ZIK-P: […] (SEQ ID NO:3)) were used for quantitative RT-PCR (RT-qPCR) with the following parameters: 50° C. 30 min, 95° C. 5 min, (95° C. 30 S, 58° C. 1 min)×40 cycles. RNA standard concentrations were determined based on the back calculation with OD values and molecular weights and were generated through serial dilution with R^2>0.95.
(§3) Balb/C mice were obtained from the Jackson Laboratory (Bar Harbor, Me., USA). After acclimatization for four days, groups of animals (n=6 per group) were injected intraperitoneally with 25 mg/kg body weight dose of TPB diluted in saline or saline alone (no drug control). Following three injections at 12 h intervals, 500 PFU of PRVABC59 virus diluted in PBS was inoculated into each mouse by the subcutaneous (SC) route. Blood was collected by retro-orbital bleeding under anesthesia at days 2, 3, 4, 5, and 6 post-infection. Viral genome copies in the plasma were determined by RT-qPCR.

PRVABC59 virus [1] = test: in vivo; format: in vivo, Balb/C mice
Protocol: as §2, §3

PRVABC59 virus [2] = test: PRVABC59 virus growth in HTR-8 cells in the presence of TPB; format: cell-based, Zika virus; settings: human trophoblast cell line HTR-8
[3] = tested on: Zika virus strain PRVABC59; test: Inhibition assay: PRVABC59 ZIKV growth in Vero cells (plaque assay, RT-qPCR); format: cell-based
Protocol: as §1, §2

PRVABC59 virus [4] = test: PRVABC59 virus growth in NTERRA cells in the presence of TPB; format: cell-based, Zika virus; settings: human testicular cell line NTERRA
[5] = ATP-based cell viability assay (CellTiter-Glo); settings: African green monkey (Cercopithecus aethiops), Vero cells, four days, read-out: CC50 (cellular cytotoxicity 50)
Protocol: A modified ATP based cytopathic effect (CPE) assay was used for this study based on the CPE method for anti-DENV drug development described elsewhere (see, e.g., Che et al., 2009 Int. J. Clin. Exp. Med. 2:363-373). Vero cells (approximately 30,000 per well) were seeded in a black 96-well plate for 24 hours before the experiment. Cell monolayers were treated with various concentrations of the drugs for 4 days at 37° C. The ATP concentration was measured following manufacturer's recommendations using CellTiter-Glo kit from Promega (Madison, Wis.). Luminescence was recorded using a Veritas Microplate Luminometer at 420 nm. The 50% cytotoxic concentration (CC50) was calculated by a non-linear regression analysis of the dose-response curves.

[6] = Pharmacokinetic study of TPB in mice (plasma LC-MS/MS); format: in vivo, Balb/C mice; settings: 10-12 h post-injection, intraperitoneal, 5 mg/kg or 25 mg/kg
Protocol: For PK studies, groups of Balb/C mice (n=3) were injected intraperitoneally with doses of 5 mg/kg or 25 mg/kg of body weight of TPB in 5% dextrose, plasma was collected from the animals at various times post-injection and stored at −80° C. until analysis by LC-MS/MS for TPB concentrations. Plasma drug levels were subjected to noncompartmental analysis (WinNonlin ver. 6.4 Certera Inc., Princeton, N.J.). The predicted steady-state levels>500 ng/ml were estimated using a twelve h dosing of 25 mg/kg dose of the compound in mice.
TPB was dissolved in DMSO at 1 mg/ml. Working standard solutions were then prepared in 50% methanol in water from the stock solution. Standards (an eight-point calibration curve) and quality controls (at three levels) were prepared by spiking the working standard solutions to blank mouse plasma. One hundred μl aliquot of plasma was mixed with 25 μl of internal standard spiking solution (rilpivirine 1000 ng/ml in 50% acetonitrile in water), 1.5 ml ethyl acetate was added and vortexed vigorously for 15 min. […]
An Agilent 1200 HPLC system (Agilent Technologies, CA, USA) coupled with AB Sciex API 3200 Q Trap with an electrospray ionization source (Applied Biosystems, Foster City, Calif., USA) was used. The mass transitions m/z 541.2→330.2 and 541.2→212.2 for analyte and m/z 367.2→195.2 for internal standard were monitored. […]

Viral E protein = test: Western blot analysis of E protein expression in virus-infected cells; format: cell-based, Zika virus
Protocol: FIGS. 3A-3C show validation of the antiviral effect of TPB in the μM range. (FIG. 3A) Cells infected with PRVABC59 virus were incubated in the presence of various concentrations of TPB for 96 hours. Culture supernatants were titrated for viral genome copies (FIG. 3A) and infectious virus (FIG. 3B). Data are from three independent experiments with error bars showing±SEM. Statistical analysis was performed using unpaired two-tailed Student's t-test to determine significance of difference. […]. (FIG. 3C) Western blot analysis of E protein expression in virus-infected cells in the presence of various concentrations of TPB. Relative mobility of molecular mass markers are shown on the left.

Q: With `CC[C@H](C)[C@H]1O[C@]2(CC[C@@H]1C)C[C@@H]1C[C@@H](C/C=C(\C)[C@@H](O[C@H]3C[C@H](OC)[C@@H](O[C@H]4C[C@H](OC)[C@@H](O)[C@H](C)O4)[C@H](C)O3)[C@@H](C)/C=C/C=C3\CO[C@@H]4[C@H](O)C(C)=C[C@@H](C(=O)O1)[C@]34O)O2` [IVM, Ivermectin] as the compound, how does the “Inhibition of ZIKV infection” value (ZIKV; 10 μM) read?
A: The value was “strongly”.

Q: For `COc1c(C)c2c(c(O)c1C/C=C(\C)CCC(=O)O)C(=O)OC2` [MPA, Mycophenolic acid], which “DENV RNA replication” value (DENV) is on record?
A: Its value is “inhibit DENV RNA replication”.

Q: And the “Inhibition of infection of cells in vitro by ZIKV” value (ZIKV; 1 μM)?
A: Its value is “over 99%”.

Q: Which “MR766 virus growth inhibition” value (Zika virus strain MR766) does the source give for `O=C(NC(=S)Nc1ccc(N2CCN(C(=O)c3cccs3)CC2)cc1)c1sc2ccccc2c1Cl` [Compound 1, 3-chloro-N-[({4-[4-(2-thienylcarbonyl)-1-piperazinyl]phenyl}amino)carbonothioyl]-1-benzothiophene-2-carboxamide] here?
A: Its value is “sensitive to inhibition”.

Q: What about the concentration at 2 days post-infection (in vivo) of the same compound?
A: The concentration at 2 days post-infection was about 270 ng/mL.

Q: And the “Viral RNA level in plasma, lower than vehicle group” value (PRVABC59 virus [1]; day 4 post-infection, 25 mg/kg intraperitoneal, 500 PFU ZIKV)?
A: The value was about 40 fold.

Q: What about the ZIKV viremia (PRVABC59 virus [1]; immunocompetent mice) of the same compound?
A: The ZIKV viremia was “reduced ZIKV viremia significantly”.

Q: What about the “PRVABC59 virus growth inhibition in HTR-8” value (PRVABC59 virus [2]) of the same compound?
A: The value was “inhibited the virus growth”.

Q: And the “Genome copy numbers in supernatants, reduction” value ([3]; 0.5 μM TPB, 96 hours)?
A: Its value is “over 100 fold”.

Q: And the “Infectious virus in supernatants, reduction” value ([3]; 0.5 μM TPB, 96 hours)?
A: Its value is “over 100 fold”.

Q: What about the Virus growth reduction ([3]; 1 μM TPB, 96 hours) of the same compound?
A: Its Virus growth reduction is “over 1000 fold”.

Q: And the “ZIKV growth inhibition (genome copies in culture supernatants) vs vehicle-only treated cells” value ([3]; 1 μM compound, Vero cells, 72 hours)?
A: Its value is over 99%.

Q: What about the “Infectious virus yield inhibition” value ([3]; 1 μM compound, Vero cells, 96 hours) of the same compound?
A: Its value is “at least 1000 fold”.

Q: And the “ZIKV yield inhibition, side-by-side comparison” value ([3]; 1 μM, Vero cells, PRVABC59, 96 hours post-infection)?
A: Its value is “over 1000 fold”.

Q: What about the “Selectivity index 50 (SI50, CC50/IC50)” value ([3]; Vero cells) of the same compound?
A: Its value is 206.

Q: What about the IC50 ([3]; Zika virus, Vero, 96 h, Vero cells, PRVABC59, 96 hours post-infection, read-out: IC50 (infectious virus yield, plaque assay)) of the same compound?
A: The IC50 was 0.094 µM.

Q: What about the “PRVABC59 virus growth inhibition in NTERRA” value (PRVABC59 virus [4]) of the same compound?
A: The value was “inhibited the virus growth”.

Q: And the CC50 at 4 days [5]?
A: Its CC50 at 4 days is 19.4 µM.

Q: What about the TPB plasma level [6] of the same compound?
A: The TPB plasma level was “approximately 100 ng/ml”.

Q: What about the “Viral E protein synthesis in infected cells” value (Viral E protein; 0.5 μM TPB) of the same compound?
A: The value was “significantly inhibited”.

Q: And the “Viral E protein synthesis in infected cells” value (Viral E protein; higher concentrations than 0.5 μM TPB)?
A: Its value is “undetectable”.
